In patent US8916565B2, “Pyrrolopyrazine-spirocyclic piperidine amides as modulators of ion channels” (priority 2011, dated 2014) one finds IC50 data, which are given here for 50 molecules.

Sequence of human NaV subtype, like NaV 1.7 (Q15858 whole entry): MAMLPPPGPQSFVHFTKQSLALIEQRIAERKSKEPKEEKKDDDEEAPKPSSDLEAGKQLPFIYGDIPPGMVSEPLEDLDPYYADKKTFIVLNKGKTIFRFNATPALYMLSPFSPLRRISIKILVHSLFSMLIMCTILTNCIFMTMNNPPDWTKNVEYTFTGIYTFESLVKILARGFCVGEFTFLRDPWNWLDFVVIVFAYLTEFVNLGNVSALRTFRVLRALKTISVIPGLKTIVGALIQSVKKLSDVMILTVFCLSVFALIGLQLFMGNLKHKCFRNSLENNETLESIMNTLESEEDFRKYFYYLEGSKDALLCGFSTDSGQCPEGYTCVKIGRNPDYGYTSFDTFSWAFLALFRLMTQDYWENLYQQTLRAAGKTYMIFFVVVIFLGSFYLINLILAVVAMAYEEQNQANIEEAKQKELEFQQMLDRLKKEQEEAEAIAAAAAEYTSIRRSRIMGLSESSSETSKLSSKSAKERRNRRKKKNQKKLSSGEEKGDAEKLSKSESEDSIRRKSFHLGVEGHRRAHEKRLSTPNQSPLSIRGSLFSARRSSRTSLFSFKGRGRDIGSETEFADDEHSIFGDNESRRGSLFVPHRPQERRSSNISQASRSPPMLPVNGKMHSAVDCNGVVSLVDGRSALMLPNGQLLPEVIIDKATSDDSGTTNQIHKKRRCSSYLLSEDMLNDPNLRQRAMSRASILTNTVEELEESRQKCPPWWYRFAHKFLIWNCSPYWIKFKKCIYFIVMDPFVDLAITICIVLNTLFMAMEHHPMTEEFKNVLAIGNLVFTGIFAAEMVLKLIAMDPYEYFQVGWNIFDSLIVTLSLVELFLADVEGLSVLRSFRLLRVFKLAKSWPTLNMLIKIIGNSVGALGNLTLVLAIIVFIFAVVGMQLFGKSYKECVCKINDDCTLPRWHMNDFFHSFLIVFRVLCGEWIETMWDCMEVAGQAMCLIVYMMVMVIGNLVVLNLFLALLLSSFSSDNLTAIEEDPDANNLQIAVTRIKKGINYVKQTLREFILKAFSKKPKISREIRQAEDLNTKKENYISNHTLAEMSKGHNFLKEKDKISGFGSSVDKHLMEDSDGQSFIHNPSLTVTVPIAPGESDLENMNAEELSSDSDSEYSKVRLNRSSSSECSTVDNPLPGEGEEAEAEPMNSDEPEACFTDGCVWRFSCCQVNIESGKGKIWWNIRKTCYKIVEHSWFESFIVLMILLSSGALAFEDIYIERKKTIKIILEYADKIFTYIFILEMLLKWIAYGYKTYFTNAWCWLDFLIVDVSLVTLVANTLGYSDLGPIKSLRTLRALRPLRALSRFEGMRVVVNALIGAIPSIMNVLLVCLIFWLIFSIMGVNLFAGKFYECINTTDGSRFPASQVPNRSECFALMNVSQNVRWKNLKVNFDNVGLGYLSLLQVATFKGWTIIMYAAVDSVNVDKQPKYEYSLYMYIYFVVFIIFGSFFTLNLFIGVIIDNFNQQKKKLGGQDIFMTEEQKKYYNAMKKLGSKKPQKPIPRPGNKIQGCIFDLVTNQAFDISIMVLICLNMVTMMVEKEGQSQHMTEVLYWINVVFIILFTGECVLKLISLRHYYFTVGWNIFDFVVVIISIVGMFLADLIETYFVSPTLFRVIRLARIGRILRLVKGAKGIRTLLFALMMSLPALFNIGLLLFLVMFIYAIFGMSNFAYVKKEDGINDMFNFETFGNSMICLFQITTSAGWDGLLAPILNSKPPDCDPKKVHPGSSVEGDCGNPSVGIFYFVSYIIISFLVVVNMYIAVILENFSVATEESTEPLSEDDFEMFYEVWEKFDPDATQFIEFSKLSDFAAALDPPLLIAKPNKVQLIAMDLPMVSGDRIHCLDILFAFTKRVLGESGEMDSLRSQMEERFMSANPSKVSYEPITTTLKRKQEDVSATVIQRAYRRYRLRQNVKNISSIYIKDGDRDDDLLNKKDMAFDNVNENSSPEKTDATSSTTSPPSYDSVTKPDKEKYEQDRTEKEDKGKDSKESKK

In the assay the target is human NaV subtype, like NaV 1.7 (Homo sapiens, UniProt Q15858). Put plainly: E-VIPR optical membrane potential assay with electrical stimulation. In kind it is cell-based. Particulars: active against one or more sodium channels; Table 3 does not name the assay or NaV subtype; read-out: Binned Activity Data (IC50). The text has this:
Assays for Detecting and Measuring NaV Inhibition Properties of Compound E-VIPR Optical Membrane Potential Assay Method with Electrical Stimulation
Sodium channels are voltage-dependent proteins that can be activated by inducing membrane voltage changes by applying electric fields. The electrical stimulation instrument and methods of use are described in Ion Channel Assay Methods PCT/US01/21652, herein incorporated by reference and are referred to as E-VIPR. The instrument comprises a microtiter plate handler, an optical system for exciting the coumarin dye while simultaneously recording the coumarin and oxonol emissions, a waveform generator, a current- or voltage-controlled amplifier, and a device for inserting electrodes in well. Under integrated computer control, this instrument passes user-programmed electrical stimulus protocols to cells within the wells of the microtiter plate.
24 hours before the assay on E-VIPR, HEK cells expressing human NaV subtype, like NaV 1.7, are seeded in 384-well poly-lysine coated plates at 15,000-20,000 cells per well. Other subtypes are performed in an analogous mode in a cell line expressing the NaV of interest. HEK cells are grown in media (exact composition is specific to each cell type and NaV subtype) supplemented with 10% FBS (Fetal Bovine Serum, qualified; GibcoBRL #16140-071) and 1% Pen-Strep (Penicillin-Streptomycin; GibcoBRL #15140-122). Cells are grown in vented cap flasks, in 90% humidity and 10% CO2, to 100% confluence. They are usually split by trypsinization 1:10 or 1:20, depending on scheduling needs, and grown for 2-3 days before the next split.
Bath 1 buffer. Glucose 10 mM (1.8 g/L), Magnesium Chloride (Anhydrous), 1 mM (0.095 g/L), Calcium Chloride, 2 mM (0.222 g/L), HEPES 10 mM (2.38 g/L), Potassium Chloride, 4.5 mM (0.335 g/L), Sodium Chloride 160 mM (9.35 g/L).
Hexyl Dye Solution: Bath 1 Buffer+0.5% β-cyclodextrin (make this prior to use, Sigma #C4767), 8 μM CC2-DMPE+2.5 μM DiSBAC6(3). To make the solution Add volume of 10% Pluronic F127 stock equal to volumes of CC2-DMPE+DiSBAC6(3). The order of preparation is first mix Pluronic and CC2-DMPE, then add DiSBAC6(3) while vortexing, then add Bath 1+β-Cyclodextrin.
1) Pre-spot compounds (in neat DMSO) into compound plates. Vehicle control (neat DMSO), the positive control (20 mM DMSO stock tetracaine, 125 μM final in assay) and test compounds are added to each well at 160× desired final concentration in neat DMSO. Final compound plate volume will be 80 μL (80-fold intermediate dilution from 1 μL DMSO spot; 160-fold final dilution after transfer to cell plate). Final DMSO concentration for all wells in assay is 0.625%.
2) Prepare Hexyl Dye Solution.
3) Prepare cell plates. On the day of the assay, medium is aspirated and cells are washed three times with 100 μL of Bath 1 Solution, maintaining 25 μL residual volume in each well.
4) Dispense 25 μL per well of Hexyl Dye Solution into cell plates. Incubate for 20-35 minutes at room temp or ambient conditions.
5) Dispense 80 μL per well of Bath 1 into compound plates. Acid Yellow-17 (1 mM) is added and Potassium Chloride can be altered from 4.5 to 20 mM depending on the NaV subtype and assay sensitivity.
6) Wash cell plates three times with 100 μL per well of Bath1, leaving 25 μL of residual volume. Then transfer 25 uL per well from Compound Plates to Cell Plates. Incubate for 20-35 minutes at room temp/ambient condition
7) Read Plate on E-VIPR. Use the current-controlled amplifier to deliver stimulation wave pulses for typically 9 seconds and a scan rate of 400 Hz. A pre-stimulus recording is performed for 0.5 seconds to obtain the un-stimulated intensities baseline. The stimulatory waveform is applied for 9 seconds followed by 0.5 seconds of post-stimulation recording to examine the relaxation to the resting state.
As usually defined, the IC50 is the concentration that gives 50% inhibition. In the case of `CC(C)Oc1ccc(C(=O)N2CCC3(CC2)N[C@@H](C)Cn2c(C(F)(F)F)ccc23)cc1F` [Compound 108], the IC50 is 2000 to 5000 nM.
On to `Cc1cccc(C(=O)N2CCC3(CC2)c2ccc(C(F)(F)F)n2CCN3C)c1` [Compound 109], for which the IC50 was > 5000 nM.
Under `COc1cc(C(=O)N2CCC3(CC2)N[C@H]2CCCC[C@H]2n2cccc23)ccc1C(C)(C)C` [Compound 110] stands ≤ 2000 nM.
Under `CC(C)Oc1ccc(C(=O)N2CCC3(CC2)c2ccc(S(C)(=O)=O)n2CCN3C)cc1Cl` [Compound 111] stands > 5000 nM.
Under `CN1CCn2c(C(F)(F)F)cc(F)c2C12CCN(C(=O)c1ccc(C3(O)CCC3)c(F)c1)CC2` [Compound 112] stands ≤ 2000 nM; under `COc1cc(C(=O)N2CCC3(CC2)c2c(F)cc(C(F)(F)F)n2CCN3C)ccc1OC(F)F` [Compound 113], ≤ 2000 nM; under `COc1cc(C(=O)N2CCC3(CC2)c2ccc(C(=O)C(F)(F)F)n2C(C)CN3C)ccc1OCCOC(F)(F)F` (centres unmarked) [Compound 114], ≤ 2000 nM.
With `CCCCOc1cc(C(=O)N2CCC3(CC2)c2ccc(C(=O)C(F)(F)F)n2CCN3C)ccc1OC` [Compound 115], the IC50 is ≤ 2000 nM.
Under `CN1CCn2c(C(F)(F)F)ccc2C12CCN(C(=O)c1cccnc1N1CCC(O)C1)CC2` (centres unmarked) [Compound 116] stands > 5000 nM.
Under `Cc1cc(C(=O)N2CCC3(CC2)c2ccc(C(=O)C(F)(F)F)n2CCN3C)ccc1OC(C)C` [Compound 117] stands ≤ 2000 nM.
Turning to `COc1cc(C(=O)N2CCC3(CC2)c2c(F)cc(C(F)(F)F)n2CCN3C)ccc1OC(C)C` [Compound 118], the IC50 was ≤ 2000 nM.
With `CNC(=O)N1CCn2c(C(F)(F)F)ccc2C12CCN(C(=O)c1ccc(OC(C)C)c(OC)c1)CC2` [Compound 119], the IC50 is ≤ 2000 nM.
Under `Cc1cc(C(=O)N2CCC3(CC2)c2c(C#N)cc(C(F)(F)F)n2CCN3C)ccc1C(C)(C)O` [Compound 120] stands 2000 to 5000 nM; under `COc1ccc(C(=O)N2CCC3(CC2)c2ccc(C(=O)C(F)(F)F)n2CCN3C)cc1F` [Compound 121], > 5000 nM; under `CC(=O)c1ccc2n1CCN(C)C21CCN(C(=O)c2ccc(OC(C)C)c(C)c2)CC1` [Compound 122], ≤ 2000 nM.
In the case of `CN1CCn2c(C(F)(F)F)ccc2C12CCN(C(=O)c1ccc(S(=O)(=O)N3CCCC3)cc1)CC2` [Compound 123], the IC50 is ≤ 2000 nM.
Under `CC(C)Oc1ccc(C(=O)N2CCC3(CC2)c2ccc(C(=O)C4CC4)n2CCN3C)c(F)c1` [Compound 124] stands ≤ 2000 nM.
Under `CC(=O)c1ccc2n1CCN(C)C21CCN(C(=O)c2ccc(OC(C)C)cc2F)CC1` [Compound 125] stands 2000 to 5000 nM.
Turning to `COc1cc(C(=O)N2CCC3(CC2)c2ccc(C(=O)C(F)(F)F)n2C(C)(C)CN3C)ccc1OC(C)C` [Compound 126], the IC50 fell in the range of 2000 to 5000 nM.
Under `CCCOc1ccc(C(=O)N2CCC3(CC2)c2ccc(C(=O)C(F)(F)F)n2CCN3C)cc1` [Compound 127] stands ≤ 2000 nM; under `Cc1cc(C(=O)N2CCC3(CC2)NCC(C)(C)n2c(C(F)(F)F)ccc23)ccc1C(C)(C)O` [Compound 128], ≤ 2000 nM; under `COc1ccc(C(=O)N2CCC3(CC2)NC(C)(C)Cn2c(C(=O)C(F)(F)F)ccc23)cc1Cl` [Compound 129], ≤ 2000 nM.
Under `COc1ccc(C(=O)N2CCC3(CC2)c2ccc(C(=O)C(F)(F)F)n2CCN3C)cc1-c1ccccc1` [Compound 130] stands 2000 to 5000 nM; under `Cc1cc(C(=O)N2CCC3(CC2)NC(C)(C)Cn2c(C(=O)C(F)(F)F)ccc23)ccc1OC(C)C` [Compound 131], ≤ 2000 nM.
With `COc1ccc(C(=O)N2CCC3(CC2)c2ccc(C(=O)C4CC4)n2CCN3C)cc1C(F)(F)F` [Compound 132], the IC50 was ≤ 2000 nM.
Turning to `COc1cc(C(=O)N2CCC3(CC2)NCCn2c(C(F)(F)F)ccc23)ccc1C(C)(C)CO` [Compound 133], the IC50 was ≤ 2000 nM.
For `CC(C)Oc1ccc(C(=O)N2CCC3(CC2)c2c(F)cc(C(F)(F)F)n2CCN3C)cc1C#N` [Compound 134], the IC50 was ≤ 2000 nM.
For the molecule `CC(C)Oc1ccc(C(=O)N2CCC3(CC2)NCCn2c(C(F)(F)F)ccc23)cc1Cl` [Compound 135], the IC50 was ≤ 2000 nM.
Under `CN1CCn2c(C(=O)C(F)(F)F)ccc2C12CCN(C(=O)c1ccc(C(CO)OCC(F)(F)F)cc1)CC2` (centres unmarked) [Compound 136] stands ≤ 2000 nM; under `COc1cc(C(=O)N2CCC3(CC2)c2ccc(C(=O)C(C)(C)C)n2CCN3C)ccc1OC(C)C` [Compound 137], ≤ 2000 nM.
On to `Cc1cc(C(=O)N2CCC3(CC2)c2ccc(C(F)(F)F)n2CCN3C(=O)N(C)C)ccc1OC(C)C` [Compound 138], for which the IC50 is ≤ 2000 nM.
Under `CC(=O)c1cc2n(c1)CC(C)(C)NC21CCN(C(=O)c2ccc(OC(C)C)c(C(F)(F)F)c2)CC1` [Compound 139] stands > 5000 nM.
With `Cc1cc(C(=O)N2CCC3(CC2)c2ccc(C(=O)C(C)C)n2CCN3C)ccc1O` [Compound 140], the IC50 is ≤ 2000 nM.
Turning to `CC[C@H](C)Oc1ccc(C(=O)N2CCC3(CC2)c2c(F)cc(C(F)(F)F)n2CCN3C)cc1OC` [Compound 141], the IC50 is ≤ 2000 nM.
Under `CCCOc1cc(C(=O)N2CCC3(CC2)c2ccc(C(=O)C(F)(F)F)n2CCN3C)ccc1OC` [Compound 142] stands ≤ 2000 nM; under `CC(C)CCOc1ccc(C(=O)N2CCC3(CC2)c2ccc(C(=O)C(F)(F)F)n2CCN3C)cc1` [Compound 143], ≤ 2000 nM; under `COc1cc(C(=O)N2CCC3(CC2)c2ccc(C(=O)C(C)C)n2CCN3C)ccc1OC(C)C` [Compound 144], ≤ 2000 nM.
Under `O=C(c1ccc(S(=O)(=O)NC2CC2)cc1)N1CCC2(CC1)c1ccc(C(F)(F)F)n1CCN2C1CCC1` [Compound 145] stands > 5000 nM; under `CCCCOc1ccc(C(=O)N2CCC3(CC2)c2ccc(C(=O)C(F)(F)F)n2CCN3C)cc1OC` [Compound 146], ≤ 2000 nM; under `CN1CCn2c(Cl)ccc2C12CCN(C(=O)c1ccc(OCC3CC3)cc1)CC2` [Compound 147], 2000 to 5000 nM.
Under `Cc1cc(C(=O)N2CCC3(CC2)c2ccc(C(=O)C(F)(F)F)n2CCN3C)ccc1OCCCO` [Compound 148] stands ≤ 2000 nM.
For `COc1cc(C(=O)N2CCC3(CC2)c2ccc(C(F)(F)F)n2CC(C)N3C)ccc1OC(C)C` (centres unmarked) [Compound 149], the IC50 is ≤ 2000 nM.
As for `CC(C)C(O)c1ccc(C(=O)N2CCC3(CC2)c2ccc(C(F)(F)F)n2CCN3C)cc1` (centres unmarked) [Compound 150], the IC50 is ≤ 2000 nM.
Under `COc1cc(C(=O)N2CCC3(CC2)c2ccc(C(F)(F)F)n2CCN3C)ccc1C(C)(C)CO` [Compound 151] stands ≤ 2000 nM; under `CC(C)Oc1ccc(C(=O)N2CCC3(CC2)c2ccc(C(F)(F)F)n2C[C@H](C)N3C)c(F)c1` [Compound 152], ≤ 2000 nM.
Under `Cc1cc(S(=O)(=O)C(C)C)ccc1C(=O)N1CCC2(CC1)c1ccc(C(=O)C(F)(F)F)n1CCN2C` [Compound 153] stands > 5000 nM; under `CC(C)c1ccc(C(=O)N2CCC3(CC2)c2ccc(C(=O)C(F)(F)F)n2CCN3C)cc1S(C)(=O)=O` [Compound 154], 2000 to 5000 nM; under `CN1CCn2c(C(F)(F)F)ccc2C12CCN(C(=O)c1ccc(Oc3ccccc3)cc1)CC2` [Compound 155], > 5000 nM.
Under `Cc1cc(C(=O)N2CCC3(CC2)c2ccc(C(F)(F)F)n2CCN3CCO)ccc1OC(C)C` [Compound 156] stands ≤ 2000 nM.
Consider `COc1cc(C(=O)N2CCC3(CC2)c2ccc(C(F)(F)F)n2CCN3C)ccc1OC(C)(C)C` [Compound 158], for which the IC50 was ≤ 2000 nM.
